Here are results for one substance from US20210052874A1, “ULTRASOUND DEVICE AND THERAPEUTIC METHODS” (priority 2011, published 2021).

The nature of the data set: In vitro transdermal delivery of carboxyfluorescein through mouse skin in a Franz diffusion cell, with or without low frequency ultrasound (LFUS). The data set is classed as in vitro ADME. Particulars: for Delivery Efficiency (% of CF delivered) / Enhancement Ratio v. free CF, no LFUS: mouse skin. How it is done: An in vitro study was performed to evaluate the ability of the present invention to enable transdermal delivery of substantially intact encapsulated drugs. The study involved applying low intensity, low pressure amplitude ultrasound waves to mouse skin in order to mediate transdermal delivery of liposome encapsulated carboxyfluorescein (CF), a hydrophilic dye. […] In this setup, an ultrasound applicator 10 having 4 transducers 12 arranged in a 2×2 array is supported by a custom fixture 80 and in direct communication with a Franz diffusion cell, including a donor compartment 82 filled with a liquid medium interspersed with liposome encapsulated CF and a sample mouse skin. Low frequency ultrasound waves (LFUS) having a low pressure amplitude of about 55 kPa, a low acoustic intensity of about 100 mW/cm^2 and a low frequency of about 17.9 kHz was generated by ultrasound applicator 10 and directed towards a mouse skin sample 84 positioned adjacent to donor compartment 82 for about 4 hours. The amount of liposome encapsulated CF that permeated mouse skin 84 and collected within a receptor compartment 86 surrounded by a water jacket 88 was examined and measured after about 4 hours of ultrasound application when the ultrasound source was turned off and again 8 hours after the start of the experiment. The liposomes were made from 1,2-dioleoyl-sn-glycerol-3-phosphocholine (DOPC), and the liposome encapsulated CF was prepared using the dehydration-rehydration technique described in Kirby, C. and G. Gregoriadis, “Dehydration rehydration vesicles: a simple method for high yield drug entrapment in liposome,” Nature Biotechnology, 1984, 2(11): p. 9′79-984, herein incorporated by reference. In this experiment, encapsulation efficiency of the CF was improved (about 10% to about 30% measured by titration) by minimizing the amount of rehydration buffer used, adjusting pH before rehydration to fully dissolve CF by minimizing the amount of rehydration buffer used, and by adjusting the pH to about 10 and subsequently adjusting the pH to about 7.4 before rehydration. The original encapsulation efficiency of CF was about 0.67% in 100 nm liposomes, using about 5.2 mg CF in the rehydration buffer (about 2.56 mM). […] Tests D1-D2 show the results for liposome encapsulated CF after exposure to 20 minutes of low frequency ultrasound stimulation. Tests E1-3 show the results for liposome encapsulated CF upon exposure to 4 hours of low frequency ultrasound stimulation.

As for carboxyfluorescein [Free CF], for the setting “4 hr simultaneous LFUS”, the “Delivery Efficiency (% of CF delivered)” value is given as 0.03% and the “Enhancement Ratio v. free CF, no LFUS” value is given as 0.00. The “Amount able to permeate the mouse skin” value (after 8 hours, not assisted by ultrasound) was “less than 0.005 M/M”. For the setting “no LFUS”, the “Delivery Efficiency (% of CF delivered)” value was 0.03% and the “Enhancement Ratio v. free CF, no LFUS” value was found to be 0.00.
